Measured values as given in paper PMC9402538, “Rational design of a sensitivity-enhanced tracer for discovering efficient APC–Asef inhibitors” (Nature Communications, 2022).
pKd: −log10 of the molar value. Values joined by “and” are separate entries in the source; they are usually repeats but may differ in a detail not shown here. Equal entries are not always repeated. “Also recorded” adds a separate entry of the source. Where two headings read alike, the source gives them in different places. Where a SMILES comes first, the peptide text is derived from it. The star is where a group is joined. Benzoyl(4-OMe) = COc1ccc(C(=O)*)cc1

How the values were obtained:
APC WT = target: T1, APC WT (Homo sapiens, UniProt P25054); test: ITC assay, APC WT; format: binding; conditions: 30 °C
T1 sequence (P25054 303-739): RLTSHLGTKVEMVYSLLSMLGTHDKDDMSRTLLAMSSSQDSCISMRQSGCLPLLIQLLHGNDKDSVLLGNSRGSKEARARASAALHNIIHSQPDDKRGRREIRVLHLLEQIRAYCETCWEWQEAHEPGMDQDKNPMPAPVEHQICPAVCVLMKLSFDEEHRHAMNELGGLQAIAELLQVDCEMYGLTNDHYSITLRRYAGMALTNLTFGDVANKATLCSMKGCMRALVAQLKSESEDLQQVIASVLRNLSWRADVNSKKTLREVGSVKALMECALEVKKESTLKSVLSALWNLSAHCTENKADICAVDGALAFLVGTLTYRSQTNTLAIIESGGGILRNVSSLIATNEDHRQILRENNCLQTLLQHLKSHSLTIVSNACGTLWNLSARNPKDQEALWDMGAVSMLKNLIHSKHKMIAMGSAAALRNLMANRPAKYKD
Description: ITC experiments were performed using a MicroCal ITC200 calorimeter (Malvern Panalytical Ltd.). APC protein and peptide inhibitors were diluted with buffer containing 50 mM HEPES pH 7.5, 300 mM NaCl and 1 mM EDTA. The cells were loaded with APC proteins at 10–20 μM. All injections were performed using an initial injection of 0.2 μL followed by 19 injections of 2 μL at 100–200 μM. All measurements were carried out at 30 °C. The data were analyzed using a single-site binding model within MicroCal ITC200 analysis software to generate the stoichiometry (N), enthalpy changes (ΔH), entropy changes (ΔS), and the association constant (K) of binding. The changes in free energy (ΔG) were calculated (ΔG = ΔH-TΔS).

His-tagged APC (303–739) = target: T2, His-tagged APC (303–739) (Homo sapiens, UniProt P25054); test: Surface plasmon resonance (Biacore 8K); format: binding
T2 sequence (P25054 303-739): T1 sequence (P25054 303-739)
Description: SPR experiments were performed using a Biacore 8 K system equipped with a CM5 sensor chip. […] The ligand at a 10 μg mL^-1 concentration in 10 mM sodium acetate, pH 5.0, was immobilized on flow cell 2; flow cell 1 was left blank to serve as a reference surface. […] To collect kinetic binding data, a serial concentration of peptide inhibitors in 1× PBS, pH 7.4, was injected over the two flow cells at a flow rate of 30 μL min^-1 and a temperature of 25 °C. The complex was allowed to associate and dissociate for 60–240 and 150–600 s, respectively. The experiments were performed in triplicate. […] The data were fitted to a Langmuir 1:1 binding model using the local Rmax analysis option available in the Biacore insight evaluation software.

SW480 cells = test: xCELLigence RTCA-DP migration assay, SW480; format: cell-based; conditions: for Cell index: 50 μM
Description: Real-time cell migration was evaluated using the xCELLigence RTCA-DP system (Roche). Briefly, SW480 cells were serum-starved for 8 h, digested, and resuspended in serum-free medium. The wells in the upper chamber of CIM plate 16 were preequilibrated with 30 μL serum-free medium for 1 h and filled with 100 μL of 4 × 10^4 serum-starved SW480 cells per well. The wells in the lower chamber of CIM plate 16 were filled with complete medium. […] Cell index values were detected every 15 min throughout the procedure, and the data were collected and analyzed with RTCA software (version 2.3).

[1] = target: T3, APC–Asef PPI (HA–APC (303–876), FLAG–Asef (170–632)) (Homo sapiens, UniProt P25054); test: Exogenous Co-IP of APC–Asef in drug-treated HEK293T cells; conditions: 24 h, TAT + linker and MAI-516 50 μM, MAIT-516 25 and 50 μM
T3 sequence (P25054 303-876): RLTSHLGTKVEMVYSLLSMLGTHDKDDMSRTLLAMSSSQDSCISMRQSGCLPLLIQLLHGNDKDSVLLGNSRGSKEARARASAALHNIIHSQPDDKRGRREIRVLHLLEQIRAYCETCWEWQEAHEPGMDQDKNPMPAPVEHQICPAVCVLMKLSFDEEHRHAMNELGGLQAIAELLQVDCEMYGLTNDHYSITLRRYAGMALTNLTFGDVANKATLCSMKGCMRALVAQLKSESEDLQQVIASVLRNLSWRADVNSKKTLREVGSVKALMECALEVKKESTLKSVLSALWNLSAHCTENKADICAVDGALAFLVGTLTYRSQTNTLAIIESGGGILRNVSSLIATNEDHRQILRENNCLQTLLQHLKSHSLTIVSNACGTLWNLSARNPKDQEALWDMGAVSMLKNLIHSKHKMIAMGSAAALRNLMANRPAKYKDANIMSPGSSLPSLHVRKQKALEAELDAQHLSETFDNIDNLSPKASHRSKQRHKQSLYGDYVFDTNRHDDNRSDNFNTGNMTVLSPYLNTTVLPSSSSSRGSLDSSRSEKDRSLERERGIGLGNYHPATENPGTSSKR
Description: For direct western blot analysis, cells were harvested in NP-40 lysis buffer (1% NP-40, 50 mM Tris-HCl at pH 7.5, 150 mM NaCl, 1 mM PMSF, 25 mM NaF, 1 mM Na3VO4) supplemented with cOmplete™ Protease Inhibitor Cocktail (Roche). […] Forty-eight hours after transfection, the cells were washed twice with cold PBS and lysed in NP-40 lysis buffer for 1 h on ice. […] The next day, the samples were centrifuged (7,000 × g for 30 s at 4 °C), and the supernatant was discarded. The beads were washed four times with NP-40 lysis buffer, and the bound proteins were eluted in SDS sample buffer for immunoblotting analysis and detected with anti-FLAG (Sigma; F1804, 1:1,000), anti-HA antibody (Sigma; H9658, 1:20,000) and goat anti-mouse IgG secondary antibody (Signalway antibody; L3032, 1:50,000). […] Twenty-four hours after transfection, peptides and peptidomimetics were added to the culture medium for 24 h. […] For endogenous immunoprecipitation, SW480, DLD1, and RKO cells were seeded in 10-cm cell culture dishes.

With `COc1ccc(C(=O)N[C@@H](C)C(=O)NCC(=O)N[C@@H](CCC(=O)O)C(=O)N[C@@H](CO)C(=O)N[C@@H](CC(C)C)C(=O)N[C@@H](Cc2ccc(O)cc2)C(=O)N[C@@H](CCC(=O)O)C(N)=O)cc1` [MAI-516] ({Benzoyl(4-OMe)}-AGESLYE-NH2) the “-TΔS” value (APC WT) was 4.85 kcal/mol, the “L/P ratio (number of sites per APC)” value (APC WT) was 0.97 and the ΔG (APC WT) was -11.6 kcal/mol. For the same compound, the ΔH (APC WT) was -16.4 kcal/mol, the pKd (APC WT; ITC) was 8.36 and the “RT (RT = 1/koff)” value (His-tagged APC (303–739)) was 135 s. For the same compound, the “Relative response at equilibrium” value (His-tagged APC (303–739); 1.5625 nM) was 2.9457 RU, the “Relative response at equilibrium” value (His-tagged APC (303–739); 3.125 nM) was 3.565 RU and the “Relative response at equilibrium” value (His-tagged APC (303–739); 6.25 nM) was 5.67 RU. For the same compound, the “Relative response at equilibrium” value (His-tagged APC (303–739); 12.5 nM) was 10.1156 RU, the “Relative response at equilibrium” value (His-tagged APC (303–739); 25 nM) was 17.7318 RU and the “Relative response at equilibrium” value (His-tagged APC (303–739); 50 nM) was 24.4156 RU. For the same compound, the “Relative response at equilibrium” value (His-tagged APC (303–739); 100 nM) was 27.6681 RU, the “Relative response at equilibrium” value (His-tagged APC (303–739); 200 nM) was 31.5021 RU and the pKd (His-tagged APC (303–739); SPR, Repeat 1, read-out: KD Repeat 1) was 7.70. It also gave a koff (His-tagged APC (303–739); SPR, Repeat 1, read-out: koff Repeat 1) of 0.00848 s⁻¹, a kon (His-tagged APC (303–739); SPR, Repeat 1, read-out: kon Repeat 1) of 427000 M⁻¹ s⁻¹ and a pKd (His-tagged APC (303–739); SPR, Repeat 2, read-out: KD Repeat 2) of 7.73. For the same compound, the koff (His-tagged APC (303–739); SPR, Repeat 2, read-out: koff Repeat 2) was 0.00807 s⁻¹, the kon (His-tagged APC (303–739); SPR, Repeat 2, read-out: kon Repeat 2) was 430000 M⁻¹ s⁻¹ and the pKd (His-tagged APC (303–739); SPR, Repeat 3, read-out: KD Repeat 3) was 7.80. The koff (His-tagged APC (303–739); SPR, Repeat 3, read-out: koff Repeat 3) was 0.00564 s⁻¹, the kon (His-tagged APC (303–739); SPR, Repeat 3, read-out: kon Repeat 3) was 353000 M⁻¹ s⁻¹ and the pKd (His-tagged APC (303–739); SPR, mean of 3 repeats, read-out: KD mean) was 7.74. For the same compound, the koff (His-tagged APC (303–739); SPR, mean of 3 repeats, read-out: koff mean) was 0.0074 s⁻¹, the kon (His-tagged APC (303–739); SPR, mean of 3 repeats, read-out: kon mean) was 403000 M⁻¹ s⁻¹ and the RT (His-tagged APC (303–739); SPR, single value printed in the Repeat 1 column) was 135 s. For the same compound, the Cell index (SW480 cells; Time 2.86 h) was 0.0858 and 0.0963 and 0.0628 and 0.0638, the Cell index (SW480 cells; Time 3.11 h) was 0.0938 and 0.1001 and 0.0718 and 0.0644 and the Cell index (SW480 cells; Time 25.38 h) was 0.4156 and 0.4495 and 0.4015 and 0.3302. For the same compound, the Cell index (SW480 cells; Time 25.63 h) was 0.4241 and 0.453 and 0.4081 and 0.333, the Cell index (SW480 cells; Time 25.88 h) was 0.4262 and 0.4606 and 0.4096 and 0.3376 and the Cell index (SW480 cells; Time 26.13 h) was 0.4312 and 0.4671 and 0.4174 and 0.3414. The Cell index (SW480 cells; Time 26.38 h) was 0.4401 and 0.4711 and 0.4224 and 0.35, the Cell index (SW480 cells; Time 26.63 h) was 0.4427 and 0.4808 and 0.4256 and 0.3526 and the Cell index (SW480 cells; Time 26.88 h) was 0.4494 and 0.4864 and 0.4295 and 0.3559. The Cell index (SW480 cells; Time 27.13 h) was 0.4537 and 0.4902 and 0.438 and 0.3614, the Cell index (SW480 cells; Time 27.38 h) was 0.4561 and 0.4966 and 0.4408 and 0.3637 and the Cell index (SW480 cells; Time 27.63 h) was 0.459 and 0.5021 and 0.4433 and 0.3665. The Cell index (SW480 cells; Time 27.88 h) was 0.4663 and 0.508 and 0.4508 and 0.3739, the Cell index (SW480 cells; Time 28.13 h) was 0.4709 and 0.5146 and 0.4572 and 0.3773 and the Cell index (SW480 cells; Time 28.38 h) was 0.4763 and 0.5221 and 0.4622 and 0.3808. For the same compound, the Cell index (SW480 cells; Time 28.63 h) was 0.4818 and 0.5253 and 0.4661 and 0.3892, the Cell index (SW480 cells; Time 28.88 h) was 0.484 and 0.5373 and 0.4696 and 0.3897 and the Cell index (SW480 cells; Time 29.13 h) was 0.4908 and 0.5435 and 0.4752 and 0.3937. The Cell index (SW480 cells; Time 29.38 h) was 0.4994 and 0.5497 and 0.4817 and 0.3996, the Cell index (SW480 cells; Time 29.63 h) was 0.5038 and 0.5558 and 0.4857 and 0.4052 and the Cell index (SW480 cells; Time 29.88 h) was 0.5108 and 0.5614 and 0.4912 and 0.4104. For the same compound, the Cell index (SW480 cells; Time 30.13 h) was 0.5142 and 0.5705 and 0.496 and 0.4144, the Cell index (SW480 cells; Time 30.38 h) was 0.5237 and 0.5775 and 0.5022 and 0.4227 and the Cell index (SW480 cells; Time 30.63 h) was 0.5252 and 0.5853 and 0.505 and 0.4265. For the same compound, the Cell index (SW480 cells; Time 30.88 h) was 0.5376 and 0.5896 and 0.5138 and 0.4332, the “cell migration (RTCA)” value (SW480 cells; SW480, MAI-516) was “dose not inhibit the migration; also recorded: no apparent impact” and the “effect on APC–Asef PPI (Co-IP)” value [1] was “no effect”.
